Counter-ions that a name gives are not always drawn.
Tests used:
Agropyron = experiment: Post-emergence test/greenhouse; format: in vivo; details: 60 g ai./ha, after three weeks
Experimental: (§1) Post-Emergence Test/Greenhouse [table] To produce a suitable preparation of active compound, 1 part by weight of active compound is mixed with the stated amount of solvent, the stated amount of emulsifier is added and the concentrate is diluted with water to the desired concentration. Test plants which have a height of 5-15 cm are sprayed with the preparation of active compound such that the particular amounts of active compound desired are applied per unit area. The concentration of the spray liquor is chosen so that the particular amounts of active compound desired are applied in 500 ml of water/ha. After three weeks, the degree of damage to the plants is assessed in % damage in comparison to the development of the untreated control. The figures denote: • 0%=no effect (like untreated control) • 100%=total destruction

Alopecurus = experiment: Post-emergence test/greenhouse; format: in vivo; details: 504 h, after three weeks, read-out: degree of damage, Alopecurus
Experimental: as §1

Avena = experiment: Post-emergence test/greenhouse; format: in vivo; details: after three weeks
Experimental: as §1

Bromus = experiment: Post-emergence test/greenhouse; format: in vivo; details: 60 g ai./ha, after three weeks
Experimental: as §1

Lolium = experiment: Post-emergence test/greenhouse; format: in vivo; details: 60 g ai./ha, after three weeks
Experimental: as §1

Setaria = experiment: Post-emergence test/greenhouse; format: in vivo; details: after three weeks
Experimental: as §1

Veronica = experiment: Post-emergence test/greenhouse; format: in vivo; details: 60 g ai./ha, after three weeks
Experimental: as §1

Wheat [1] = experiment: Post-emergence test/greenhouse; format: in vivo; details: wheat, in vivo, 3 weeks
Experimental: as §1

Avena fatua [2] = experiment: Post-emergence tests/outdoors (Example C, Canada); format: in vivo; details: outdoors
Experimental: (§2) Post-Emergence Tests/Outdoors In addition to the comparative compounds (B) and (D), the sodium salt of the compound of the formula (I) was tested under outdoor conditions in the main cultivation areas of summer wheat in Canada against economically important weeds. The small-plot experiments were carried out on cultivated land under agricultural use. Areas with particularly extensive weed growth were chosen preferably. The active compounds were applied across the area by the spray method, with an average droplet size. To produce a useful preparation of active compound, the active compounds were formulated as 70 WP (70% w/w water-dispersible powder) and applied with customary amounts of water. Wetting of the plants was improved by addition of a surface-active substance (SAS) in the concentrations recommended by the respective manufacturer. To assess the crop compatibility, from 1 to 8 weeks after the treatment, plant growth inhibitions or […] of the leaf area were assessed in % damage in comparison to the development of the untreated control. At different intervals after the treatment, the herbicidal activity was assessed as % reduction in comparison to the untreated control, based on the weed development. The figures denote: • 0%=no damage of the crops or no herbicidal effect, • 100%=total destruction of the crops or the weeds.

Fallopia convolvulus = experiment: Post-emergence tests/outdoors (Example C, Canada); format: in vivo; details: outdoors, 30 g of a.i./ha + SAS (Canplus 411), 70 WP, 5 tests
Experimental: as §2

Setaria viridis [3] = experiment: Post-emergence tests/outdoors (Example C, Canada); format: in vivo; details: outdoors, 30 g of a.i./ha + SAS (Canplus 411), 70 WP, 5 tests
Experimental: as §2

Sinapis arvensis [4] = experiment: Post-emergence tests/outdoors (Example C, Canada); format: in vivo; details: outdoors, 30 g of a.i./ha + SAS (Canplus 411), 70 WP, 5 tests
Experimental: as §2

Thlaspi arvense [5] = experiment: Post-emergence tests/outdoors (Example C, Canada); format: in vivo; details: outdoors, 30 g of a.i./ha + SAS (Canplus 411), 70 WP, 3 tests
Experimental: as §2

wheat [6] = experiment: Post-emergence tests/outdoors (Example C, Canada), crop damage; format: in vivo, summer wheat; details: in vivo
Experimental: as §2

Amaranthus retroflexus = experiment: Post-emergence tests/outdoors (Example D, Canada and USA); format: in vivo; details: outdoors, 28–30 g of a.i./ha + SAS, 70 WP or 70 WG, 60 tests
Experimental: (§3) Post-Emergence Tests/Outdoors The sodium salt of the compound of the formula (I) was tested under outdoor conditions in the main cultivation areas of summer wheat in Canada and the USA against economically important weeds. The small-plot experiments were carried out on cultivated land under agricultural use, with cultivation and climate conditions which can be considered to be representative for the period of the trial. Areas with particularly extensive weed growth were chosen by way of preference. The active compound was applied across the area by the spray method, with an average droplet size. To produce a useful preparation of active compound, the active compound was formulated as 70 WP or 70 WG (70% w/w water-dispersible powder or granules) and applied with customary amounts of water. Wetting of the plants was improved by addition of a surface-active substance (SAS) in the concentration recommended by the manufacturer. To assess the crop compatibility, from 1 to 8 weeks after the treatment, plant growth inhibitions or […] of the leaf area were assessed in % damage in comparison to the development of the untreated control. At different intervals after the treatment, the herbicidal activity was assessed as % reduction in comparison to the untreated control, based on the weed development. The figures denote: • 0%=no damage of the crops or no herbicidal effect, • 100%=total destruction of the crops or the weeds.

Avena fatua [7] = experiment: as above; format: in vivo; details: outdoors, 28–30 g of a.i./ha + SAS, 70 WP or 70 WG, 263 tests
Experimental: as §3

Brassica spp. = experiment: as above; format: in vivo; details: outdoors, 28–30 g of a.i./ha + SAS, 70 WP or 70 WG, 27 tests
Experimental: as §3

Capsella bursa-pastoris = experiment: as above; format: in vivo; details: outdoors, 28–30 g of a.i./ha + SAS, 70 WP or 70 WG, 12 tests
Experimental: as §3

Setaria viridis [8] = experiment: as above; format: in vivo; details: outdoors, 28–30 g of a.i./ha + SAS, 70 WP or 70 WG, 102 tests
Experimental: as §3

Sinapis arvensis [9] = experiment: as above; format: in vivo; details: outdoors, 28–30 g of a.i./ha + SAS, 70 WP or 70 WG, 48 tests
Experimental: as §3

Thlaspi arvense [10] = experiment: as above; format: in vivo; details: outdoors, 28–30 g of a.i./ha + SAS, 70 WP or 70 WG, 45 tests
Experimental: as §3

How did the “degree of damage, Agropyron” value (Agropyron) turn out when COc1nn(C(=O)NS(=O)(=O)c2ccccc2OC(F)(F)F)c(=O)n1C [(I)-Na-salt, 2-(2-trifluoromethoxy-phenylsulphonylaminocarbonyl)-4-methyl-5-methoxy-2,4-dihydro-3H-1,2,4-triazol-3-one] was run?
Its value is 70%.

What about the pest or weed control at 60 g/ha (Alopecurus; 60 g ai./ha) of the same compound?
The pest or weed control at 60 g/ha was 80%.

And the pest or weed control at 125 g/ha (Alopecurus; 125 g ai./ha)?
Its pest or weed control at 125 g/ha is 90%.

What about the “degree of damage, Avena” value (Avena; 60 g ai./ha) of the same compound?
The value was 70%.

What about the “degree of damage, Avena” value (Avena; 125 g ai./ha) of the same compound?
Its value is 90%.

And the “degree of damage, Bromus” value (Bromus)?
The value was 90%.

And the “degree of damage, Lolium” value (Lolium)?
Its value is 90%.

What about the “degree of damage, Setaria” value (Setaria; 60 g ai./ha) of the same compound?
Its value is 100%.

And the “degree of damage, Setaria” value (Setaria; 125 g ai./ha)?
The value was 95%.

And the “degree of damage, Veronica” value (Veronica)?
The value was 90%.

And the “degree of damage, Wheat” value (Wheat [1])?
Its value is 0%.

What about the “herbicidal effect (%), Avena fatua” value (Avena fatua [2]; 30 g of a.i./ha + SAS (Canplus 411), 70 WP, 6 tests) of the same compound?
Its value is 88%.

And the “activity against Avena fatua compared with comparative compounds (B) and (D), in words” value (Avena fatua [2]; post-emergence)?
The value was “considerably stronger activity”.

What about the “herbicidal effect (%), Fallopia convolvulus” value (Fallopia convolvulus) of the same compound?
Its value is 73%.

What about the “herbicidal effect (%), Setaria viridis” value (Setaria viridis [3]) of the same compound?
Its value is 94%.

And the “herbicidal effect (%), Sinapis arvensis” value (Sinapis arvensis [4])?
The value was 94%.

And the “herbicidal effect (%), Thlaspi arvense” value (Thlaspi arvense [5])?
Its value is 93%.

And the “crop compatibility compared with comparative compounds (B) and (D), in words” value (wheat [6])?
Its value is “approximately the same compatibility”.

And the “herbicidal effect (%), Amaranthus retroflexus” value (Amaranthus retroflexus)?
The value was 90%.

What about the “herbicidal effect (%), Avena fatua” value (Avena fatua [7]) of the same compound?
Its value is 90%.

What about the “herbicidal effect (%), Brassica spp.” value (Brassica spp.) of the same compound?
Its value is 93%.

And the “herbicidal effect (%), Capsella bursa-pastoris” value (Capsella bursa-pastoris)?
The value was 90%.

What about the “herbicidal effect (%), Setaria viridis” value (Setaria viridis [8]) of the same compound?
The value was 94%.

What about the “herbicidal effect (%), Sinapis arvensis” value (Sinapis arvensis [9]) of the same compound?
The value was 98%.

What about the “herbicidal effect (%), Thlaspi arvense” value (Thlaspi arvense [10]) of the same compound?
Its value is 97%.
